Reference: PubChem BioAssay (NCI)
“And” between values parts separate entries of the source, which are not always exact repeats. Equal entries are not always repeated.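 Values below derive from 48-hour exposures of cells grown in 96-well plates, with endpoints linearly interpolated between the two concentrations bracketing the appropriate inhibition level. Abbreviation: GI50, concentration required for 50% inhibition of growth. TGI denotes the concentration required for complete inhibition of growth.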

tested on: MDA-MB-468 breast; test: inhibition of tumour cell growth, NCI panel, 48 h

| SMILES | GI50 | TGI |
| --- | --- | --- |
| Cc1cnc(C(=O)NNc2nc3sc4c(c3c(=O)n2C)C(C)CCC4)cn1 (configuration not stated) | 278 nM | 1070 nM |
| OC(c1cc(C23CC4CC(CC(C4)C2)C3)nc2c(Cl)cc(Cl)cc12)C1CCCCN1 (configuration not stated) | 1480 nM | 2810 nM |
| COc1cc(C2CC(c3ccc(Nc4ccnc5cc(Cl)ccc45)cc3)=NN2c2ccc(Cl)cc2)cc(OC)c1OC (configuration not stated) | 908 nM | 9670 nM |
| CCN(CC)c1ccc(C(=O)c2ccc(N(CC)CC)cc2)cc1 | 298 nM | 1660 nM |
| Cc1cc(N2CCOCC2)cc2[nH]c(-c3c(NC[C@@H](O)c4cccc(Cl)c4)cc[nH]c3=O)nc12 | 3650 nM | 14000 nM |
| CN(C)c1ccc(/C=C/c2cc[n+](C)c(/C=C/c3ccc(N(C)C)cc3)c2)cc1 | 96.9 nM | 537 nM |
| N#C/C(=C\c1ccc(Br)cc1)n1nnc2ccc(F)cc21 | 271 nM | 867 nM |
| CCN1CCN(CC(=O)N2c3cccc4cccc(c34)N(C(=O)CN3CCN(CC)CC3)C2c2cn(-c3ccccc3)nc2-c2cccc([N+](=O)[O-])c2)CC1 | 1260 nM | 2760 nM |
| C=C1CC2(OC1=O)C(=O)Nc1ccccc12 (configuration not stated) | 854 nM | 2700 nM |
| COc1cc(Nc2ncc(F)c(Nc3ccc4c(n3)N(COP(=O)(O)O)C(=O)C(C)(C)O4)n2)cc(OC)c1OC | 1550 nM and 1650 nM | 4740 nM and 5420 nM |
| C=C1C(=O)O[C@H]2[C@H]1CC/C(Cn1cc(-c3ccccc3C(F)(F)F)nn1)=C\CC[C@@]1(C)O[C@@H]21 | 1140 nM | 2800 nM |
| O=C(/C=C/c1ccc(C(F)(F)F)cc1)c1ccc(Nc2nc(NCCO)nc(Nc3ccc(Cl)cc3)n2)cc1 | 5540 nM | 21300 nM |
| CCOC(=O)c1c2c(n3ccccc13)C(=O)c1ncccc1C2=O | 2770 nM | 12000 nM |
| O=C1CCc2c(sc3[nH]c(=S)n(Cc4ccc(Cl)cc4)c(=O)c23)C1 | 299 nM | 1210 nM |
| Cn1cc(-c2ccc(-c3ccc(C4=NC5(CC5)C(=O)N4C[C@@H]4CCN(C(=O)C5CC5)C4)cc3)cc2)cn1 | 16900 nM | 40100 nM |
| COC(=O)[C@@H](C)C[C@H](Cc1ccccc1)NC(=O)c1csc([C@@H](C[C@H](C(C)C)N(C)C(=O)[C@@H](NC(=O)[C@H]2CCCCN2C)C2CC2)OC(C)=O)n1 |  | > 16500 nM |
| COc1cc(-c2nc(SCCC(C)C)nc(Nc3ccc(S(N)(=O)=O)cc3)c2C#N)cc(OC)c1OC | 3070 nM | 9960 nM |
| O=C1C(=O)c2cccnc2-c2ncccc21 | 193 nM | 491 nM |
| CCNC(=O)O[C@H]1CN[C@H](C#Cc2cc3ncnc(Nc4ccc(OCc5cccc(F)c5)c(Cl)c4)c3s2)C1 | 155 nM | 1920 nM |
| Cc1cn(-c2cc(NC(=O)c3ccc(C)c(Nc4nccc(-c5cccnc5)n4)c3)cc(C(F)(F)F)c2)cn1 | 1800 nM and 1750 nM | 4060 nM and 8390 nM |
| COc1ccc(-c2ccc(-c3ccc(C(=N)N)o3)o2)cc1 | 864 nM | 2840 nM |
| Cc1ncc(C(=O)Nc2ccc(CN3CCN(C)CC3)c(C(F)(F)F)c2)cc1C#Cc1cnc(N)cc1C#N | 1290 nM | 3780 nM |
| S=P(N1CC1)(N1CC1)N1CC1 | 23700 nM | 170000 nM |
| O=C1C(Cl)=C(NCc2ccco2)C(=O)c2ccccc21 | 3710 nM | 22000 nM |
| O=C(OC[C@H]1O[C@H](OC(=O)c2cc(O)c(O)c(OC(=O)c3cc(O)c(O)c(O)c3)c2)[C@H](OC(=O)c2cc(O)c(O)c(OC(=O)c3cc(O)c(O)c(O)c3)c2)[C@@H](OC(=O)c2cc(O)c(O)c(OC(=O)c3cc(O)c(O)c(O)c3)c2)[C@@H]1OC(=O)c1cc(O)c(O)c(OC(=O)c2cc(O)c(O)c(O)c2)c1)c1cc(O)c(O)c(OC(=O)c2cc(O)c(O)c(O)c2)c1 | 4750 nM | 17800 nM |
| O=C1C[C@@H]2/C(=C(O)\C=C\c3ccccc3)C(=O)C=C[C@@H]2O1 | 1580 nM | 3210 nM |
| Cc1ccc(Cl)cc1NC(=O)c1sc2nc3c(cc2c1N)C(=O)CCC3 | 2740 nM | 8760 nM |
| Cc1cnc(C(=O)Nc2nc3ccc(S(=O)(=O)Nc4ccc(C5(C(F)(F)F)CC5)cc4)cc3[nH]2)cn1 | 224 nM | 1980 nM |
| C[N+]1=C(/C=C\C=C\c2ccccc2)C(C)(C)c2ccccc21 | 636 nM | 4550 nM |
